Measured values from patent US12084420B2, “Indoline compounds for inhibiting KIF18A” (Volastra Therapeutics, Inc., priority 2021, dated 2024).
Read-outs that look alike come from different tables or passages of the source.

Columns and labels:
[1] = tested on: HCC15 cells; test: Cell viability of KIF18a-sensitive cell lines, HCC15 (Cell Titre-Glo, 7 days); format: cell-based; conditions: HCC15, 168 h, read-out: HCC-15 IC50
Method: Cell Viability of KIF18a-Sensitive Cell Lines
Cell lines were seeded as follows 24 hours before compound treatment: HCC15 (Korean Cell Line Bank) 600 cell/well, 95 μL of RPMI-1640 media supplemented with 100 units/mL penicillin, 100 units/mL streptomycin and 10% FBS; NIH:OVCAR-3 (ATCC), 1000 cell/well, 95 μL of RPMI-1640 media supplemented with 100 units/mL penicillin, 100 units/mL streptomycin, 0.01 mg/mL bovine insulin, and 20% FBS; JIMT-1 (Addexbio) 1000 cell/well, 95 μL of DMEM media supplemented with 100 units/mL penicillin, 100 units/mL streptomycin, and 10% FBS.
Test compounds were added to cells in a 20× dilution scheme by adding 5 μL of serially diluted compound to the plate, and the treated cells were incubated for an additional 7 days in a 37° C., 5% CO2 incubator. DMSO was used as the negative control (0% effect), and wells omitting cells were used as the positive control (100% effect). The cells were incubated for seven days, and cell viability determined via the Promega Cell Titre-Glo® Assay kit. Luminescence units were converted to ATP concentrations via an ATP standard curve (10 point, 2-fold dilution from 5 uM). % Inhibition was calculated for each well as: ([max−min]−[test−min])/[max−min]. IC50 values were calculated from concentration vs. % Inhibition data via a four-parameter variable slope model.

[2] = target: hKIF18A (1-374) (Homo sapiens (Human), UniProt Q8NI77); test: Inhibition of KIF18A microtubule-dependent ATPase activity (ADP-Glo)
[3] = target: KIF18a-Microtubule Complex (Homo sapiens (Human), UniProt Q8NI77); test: Binding kinetics to KIF18a-microtubule complex (global progress curve analysis); conditions: for kon (on-rate from binding kinetics assay) / koff (off-rate from binding kinetics assay): global progress curve analysis; for Ki: read-out: KI (determined from binding kinetic assay koff/kon), koff/kon; for koff: read-out: koff (off-rate from binding kinetics assay)
Method: Binding Kinetics to KIF18a-Microtubule Complex
Compound binding kinetics parameters (kon and koff) were determined by the method of global progress curve analysis (GPCA). […] ADP product levels were determined by the Promega® ADP-Glo assay. The time/dose-dependent progress curves were then globally fit to a Michaelis-Menten kinetics model with 1-step slow binding inhibition to derive both on-rate kon and off-rate koff values (Zhang, R., Wong, K. (2017): “High performance enzyme kinetics of turnover, activation and inhibition for translational drug discovery”, Expert Opinion on Drug Discovery, 2017 January; 12(1):17-37. doi: 10.1080/17460441.2017.1245721).

[4] = HCC-15 cells, 7 days, Cell Titre-Glo
[5] = KIF18A microtubule-dependent ATPase activity, biochemical assay

Sequence of hKIF18A (1-374) (Q8NI77 whole entry, looked up): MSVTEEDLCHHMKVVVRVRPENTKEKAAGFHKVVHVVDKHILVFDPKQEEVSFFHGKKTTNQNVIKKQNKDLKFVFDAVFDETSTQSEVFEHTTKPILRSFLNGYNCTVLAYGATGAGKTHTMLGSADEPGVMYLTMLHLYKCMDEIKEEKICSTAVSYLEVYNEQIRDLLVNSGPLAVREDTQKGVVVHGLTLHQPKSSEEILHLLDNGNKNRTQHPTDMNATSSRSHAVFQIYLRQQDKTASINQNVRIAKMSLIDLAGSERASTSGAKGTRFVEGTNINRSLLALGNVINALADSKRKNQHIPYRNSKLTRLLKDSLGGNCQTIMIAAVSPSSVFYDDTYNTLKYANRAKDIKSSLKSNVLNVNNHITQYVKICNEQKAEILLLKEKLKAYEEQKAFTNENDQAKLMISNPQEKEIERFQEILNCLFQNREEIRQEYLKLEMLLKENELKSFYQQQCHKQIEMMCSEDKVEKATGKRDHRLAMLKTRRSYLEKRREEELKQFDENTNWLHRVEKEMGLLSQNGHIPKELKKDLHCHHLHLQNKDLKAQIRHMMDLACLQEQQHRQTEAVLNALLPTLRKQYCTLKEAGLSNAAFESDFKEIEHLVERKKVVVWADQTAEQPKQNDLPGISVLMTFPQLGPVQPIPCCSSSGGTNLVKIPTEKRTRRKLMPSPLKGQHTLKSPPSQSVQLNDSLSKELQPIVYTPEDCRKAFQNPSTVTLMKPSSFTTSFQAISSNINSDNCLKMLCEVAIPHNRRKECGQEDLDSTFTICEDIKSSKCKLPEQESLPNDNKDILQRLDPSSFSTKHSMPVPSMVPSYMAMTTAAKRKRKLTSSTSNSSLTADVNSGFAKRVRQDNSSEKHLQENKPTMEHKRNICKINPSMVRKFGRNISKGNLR
Sequence of hKIF18A (1-374) (Q2XVP4 whole entry partner, looked up): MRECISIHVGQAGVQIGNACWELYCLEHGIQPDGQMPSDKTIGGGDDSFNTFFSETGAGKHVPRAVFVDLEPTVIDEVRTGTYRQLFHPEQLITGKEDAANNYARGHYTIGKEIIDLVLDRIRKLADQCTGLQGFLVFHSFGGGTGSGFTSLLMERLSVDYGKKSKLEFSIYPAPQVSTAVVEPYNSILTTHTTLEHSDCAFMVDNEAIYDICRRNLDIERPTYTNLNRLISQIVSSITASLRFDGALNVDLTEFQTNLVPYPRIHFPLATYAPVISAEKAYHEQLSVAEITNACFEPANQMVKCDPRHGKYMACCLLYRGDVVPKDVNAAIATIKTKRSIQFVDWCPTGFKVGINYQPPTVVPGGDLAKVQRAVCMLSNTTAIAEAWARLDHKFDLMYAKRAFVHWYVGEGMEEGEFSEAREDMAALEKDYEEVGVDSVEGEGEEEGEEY
Sequence of hKIF18A (1-374) (P02554 whole entry partner, looked up): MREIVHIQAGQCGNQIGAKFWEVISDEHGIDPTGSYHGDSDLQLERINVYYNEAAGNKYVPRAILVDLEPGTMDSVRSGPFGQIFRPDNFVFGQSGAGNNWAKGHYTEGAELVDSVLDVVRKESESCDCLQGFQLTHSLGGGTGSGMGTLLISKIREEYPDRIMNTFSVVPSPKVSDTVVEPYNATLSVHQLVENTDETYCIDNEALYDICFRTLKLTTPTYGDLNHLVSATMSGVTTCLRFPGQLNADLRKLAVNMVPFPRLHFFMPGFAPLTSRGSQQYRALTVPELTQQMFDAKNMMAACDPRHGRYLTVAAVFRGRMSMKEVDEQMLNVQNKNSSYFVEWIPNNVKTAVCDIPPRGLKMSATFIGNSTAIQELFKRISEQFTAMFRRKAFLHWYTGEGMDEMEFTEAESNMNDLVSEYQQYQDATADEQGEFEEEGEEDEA
Sequence of KIF18a-Microtubule Complex (Q8NI77 whole entry, looked up): as the sequence (Q8NI77 whole entry, looked up) above
Sequence of KIF18a-Microtubule Complex (Q2XVP4 whole entry partner, looked up): as the sequence (Q2XVP4 whole entry partner, looked up) above
Sequence of KIF18a-Microtubule Complex (P02554 whole entry partner, looked up): as the sequence (P02554 whole entry partner, looked up) above

Row | SMILES | IC50 [1, 4] | IC50 [2, 5] | IC50 [1] | IC50 [2] | kon (on-rate from binding kinetics assay) [3] | disc. t1/2 (dissociation half-life ln(2)/koff) [3] | Ki [3] | koff [3] | koff (off-rate from binding kinetics assay) [3]
1 | O=C(Nc1cccc(C(=O)N2CC3(CCCC3)c3c(F)cccc32)c1)NC1CC1 [Compound 2′, 1-cyclopropyl-3-(3-(4′-fluorospiro[cyclopentane-1,3′-indolin]-1′-carbonyl)phenyl)urea] | 2600 nM | 920 nM | – | – | – | – | – | – | –
2 | O=C(c1cccc(S(=O)(=O)N2CCC(F)(F)CC2)c1)N1CC2(CCC3(CC3)CC2)c2ccccc21 [Compound 4, (3-((4,4-difluoropiperidin-1-yl)sulfonyl)phenyl)(dispiro[cyclopropane-1,1′-cyclohexane-4′,3″-indolin]-1″- yl)methanone] | 2100 nM | 360 nM | – | – | – | – | – | – | –
3 | CC(C)(C)NS(=O)(=O)c1cccc(C(=O)N2CC3(CCC4(CC4)CC3)c3ccccc32)c1 [Compound 10, N-(tert-butyl)-3-(dispiro[cyclopropane-1,1′-cyclohexane-4′,3″-indoline]-1″- carbonyl)benzenesulfonamide] | 2200 nM | 270 nM | – | – | – | – | – | – | –
4 | CS(=O)(=O)Nc1ccc2c(c1)C1(CCCC1)CN2C(=O)c1cccc(S(=O)(=O)N2CCC(F)(F)CC2)c1 [Compound 18, N-(1′-(3-((4,4-difluoropiperidin-1-yl)sulfonyl)benzoyl)spiro[cyclopentane-1,3′-indolin]-5′-yl)methanesulfonamide] | – | 79 nM | 160 nM | – | – | – | – | – | –
5 | CS(=O)(=O)Nc1ccc2c(c1)C1(CCC3(CC3)CC1)CN2C(=O)c1cccc(S(=O)(=O)N2CCCCC2)c1 [Compound 20, N-(1″-(3-(piperidin-1-ylsulfonyl)benzoyl)dispiro[cyclopropane-1,1′-cyclohexane-4′,3″-indolin]-5″- yl)methanesulfonamide] | 25 nM | 13 nM | – | – | – | – | – | – | –
6 | CS(=O)(=O)Nc1ccc2c(c1)C1(CCC3(CC3)CC1)CN2C(=O)c1cccc(S(=O)(=O)N2CCCC2)c1 [Compound 21, N-(1″-(3-(pyrrolidin-1-ylsulfonyl)benzoyl)dispiro[cyclopropane-1,1′-cyclohexane-4′,3″-indolin]-5″- yl)methanesulfonamide] | 55 nM | 19 nM | – | – | – | – | – | – | –
7 | CC1CCC2(CC1)CN(C(=O)c1cccc(S(=O)(=O)N3CCC(F)(F)CC3)c1)c1ccc(NS(C)(=O)=O)cc12 (centres unmarked) [Compound 24, N-(1′-(3-((4,4-difluoropiperidin-1-yl)sulfonyl)benzoyl)-4-methylspiro[cyclohexane-1,3′-indolin]-5′-yl)methanesulfonamide] | 23 nM | – | – | 10 nM | – | – | – | – | –
8 | CC(C)(C)NS(=O)(=O)c1cccc(C(=O)N2CC3(CCCCC3)c3cc(NS(C)(=O)=O)ccc32)c1 [Compound 26, N-(tert-butyl)-3-(5′-(methylsulfonamido)spiro[cyclohexane-1,3′-indoline]-1′-carbonyl)benzenesulfonamide] | 69 nM | 67 nM | – | – | – | – | – | – | –
9 | O=C(c1cccc(S(=O)(=O)N2CCC(F)(F)CC2)c1)N1CC2(CCCC2)c2cc(NS(=O)(=O)CCO)ccc21 [Compound 27, N-(1′-(3-((4,4-difluoropiperidin-1-yl)sulfonyl)benzoyl)spiro[cyclopentane-1,3′-indolin]-5′-yl)-2-hydroxyethane-1-sulfonamide] | – | – | 140 nM | – | – | – | – | – | –
10 | CS(=O)(=O)Nc1ccc2c(c1)C1(CCC3(CC3)CC1)CN2C(=O)c1cccc(S(=O)(=O)N2CCC(F)(F)CC2)c1 [Compound 28, N-(1″-(3-((4,4-difluoropiperidin-1-yl)sulfonyl)benzoyl)dispiro[cyclopropane-1,1′-cyclohexane-4′,3″-indolin]-5″-yl)methanesulfonamide] | 24 nM | 10 nM | – | – | – | – | – | – | –
11 | O=C(c1cccc(S(=O)(=O)N2CCC(F)(F)CC2)c1)N1CC2(CCC3(CC3)CC2)c2cc(NS(=O)(=O)CCO)ccc21 [Compound 29, N-(1″-(3-((4,4-difluoropiperidin-1-yl)sulfonyl)benzoyl)dispiro[cyclopropane-1,1′-cyclohexane-4′,3″-indolin]-5″-yl)-2-hydroxyethane-1-sulfonamide] | 330 nM | 22 nM | – | – | – | – | – | – | –
12 | CS(=O)(=O)Nc1ccc2c(c1)C1(CCCCC1)CN2C(=O)c1cccc([S+]([O-])C2CCCC2)c1 (centres unmarked) [Compound 43, N-(1′-(3-(cyclopentylsulfinyl)benzoyl)spiro [cyclohexane-1,3′-indolin]-5′-yl)methanesulfonamide] | 490 nM | 89 nM | – | – | – | – | – | – | –
13 | CS(=O)(=O)Nc1ccc2c(c1)C1(CCCCC1)CN2C(=O)c1cccc(S(=O)(=O)N2CC3(CCC3)C2)c1 [Compound 129, N-(1′-(3-((2-azaspiro[3.3]heptan-2-yl)sulfonyl)benzoyl)spiro[cyclohexane-1,3′-indolin]-5′-yL)methanesulfonamide] | – | 45 nM | – | – | 12200 M⁻¹ s⁻¹ | 2.5 h | 6.3 nM | 7.78e-05 s⁻¹ | –
14 | CC(C)(C)NS(=O)(=O)c1cccc(C(=O)N2CC3(CCC(F)(F)CC3)c3cc(NS(C)(=O)=O)ccc32)c1 [Compound 144, N-(tert-butyl)-3-(4,4-difluoro-5′-(methylsulfonamido)spiro[cyclohexane-1,3′-indoline]-1′-carbonyl)benzenesulfonamide] | – | 51 nM | – | – | 4170 M⁻¹ s⁻¹ | 5.2 h | 9.3 nM | 3.89e-05 s⁻¹ | –
15 | CS(=O)(=O)Nc1ccc2c(c1)C1(CCC3(CC3)CC1)CN2C(=O)c1cccc(S(=O)(=O)C2CCCC2)c1 [Compound 155, N-(1″-(3-(cyclopentylsulfonyl)benzoyl)dispiro [cyclopropane-1,1′-cyclohexane-4′,3″- indolin]-5″-yl)methanesulfonamide] | – | 7.4 nM | – | – | 30600 M⁻¹ s⁻¹ | 6.5 h | 2 nM | 3.06e-05 s⁻¹ | –
16 | CC(C)(C)NS(=O)(=O)c1cccc(C(=O)N2C[C@]3(CC[C@H](C(F)F)CC3)c3cc(NS(C)(=O)=O)ccc32)c1 [Compound 162a] | – | 15 nM | – | – | 8060 M⁻¹ s⁻¹ | 13 h | 1.9 nM | – | 1.53e-05 s⁻¹
17 | CS(=O)(=O)Nc1ccc2c(c1)C1(CCC3(CC3)CC1)CN2C(=O)c1cccc(S(=O)(=O)N2CC3C(C2)C3(F)F)c1 (centres unmarked) [Compound 237, N-(1″-(3-((6,6-difluoro-3-azabicyclo[3.1.0]hexan-3-yl)sulfonyl)benzoyl)dispiro[cyclopropane-1,1′-cyclohexane-4′,3″-indolin]-5″- yl)methanesulfonamide] | – | 11 nM | – | – | 22800 M⁻¹ s⁻¹ | 19 h | 0.44 nM | 1e-05 s⁻¹ | –
18 | CC(C)(C)NS(=O)(=O)c1cc(C(=O)N2CC3(CCC4(CC4)CC3)c3cc(NS(C)(=O)=O)ccc32)cs1 [Compound 262, N-(tert-butyl)-4-(5″- (methylsulfonamido)dispiro[cyclopropane-1,1′-cyclohexane-4′,3″-indoline]-1″-carbonyl)thiophene-2-sulfonamide] | – | 5.9 nM | – | – | 8890 M⁻¹ s⁻¹ | 6.7 h | 0.31 nM | 2.86e-05 s⁻¹ | –
19 | CCS(=O)(=O)Nc1ccc2c(c1)C1(CCC3(CC3)CC1)CN2C(=O)c1cc(S(=O)(=O)NC(C)(C)C)cs1 [Compound 269, N-(tert-butyl)-5-(5″- (ethylsulfonamido)dispiro[cyclopropane-1,1′-cyclohexane-4′,3″-indoline]-1″- carbonyl)thiophene-3-sulfonamide] | – | 79 nM | – | – | 5560 M⁻¹ s⁻¹ | 8.7 h | 4 nM | 2.22e-05 s⁻¹ | –
20 | CC(C)(C)NS(=O)(=O)c1cc(C(=O)N2CC3(CCC4(CC4)CC3)c3cc(NS(C)(=O)=O)ccc32)ccc1O [Compound 298, N-(tert-butyl)-2-hydroxy-5-(5″-(methylsulfonamido)dispiro[cyclopropane-1,1′-cyclohexane-4′,3″-indoline]-1″-carbonyl)benzenesulfonamide] | – | 8.4 nM | – | – | 19700 M⁻¹ s⁻¹ | 26 h | 0.38 nM | 7.5e-06 s⁻¹ | –
21 | CCS(=O)(=O)Nc1ccc2c(c1)[C@]1(CC[C@H](C(F)F)CC1)CN2C(=O)c1cccc(S(=O)(=O)NC(C)(C)C)c1 [Compound 333b] | – | 33 nM | – | – | 3890 M⁻¹ s⁻¹ | 63 h | 0.77 nM | – | 3.06e-06 s⁻¹
